Measurements reported in paper PMC9775191, “A Subset Screen of the Compounds Australia Scaffold Library Identifies 7-Acylaminodibenzoxazepinones as Potent and Selective Hits for Anti-Giardia Drug Discovery” (Biomedicines, 2022).

Tested on: G. duodenalis BRIS/91/HEPU/1279
Test: Primary Giardia screen at 10 µM (live-cell imaging, automated counting)
Assay type: cell-based, Giardia duodenalis
Settings: 24 h
Procedure, shortened: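 Singlicate, 10 μM final, 0.2% DMSO; sealed chambers, 3% O2/5% CO2/N2. Counts by live-cell imaging at 24 h and 48 h. % growth vs vehicle, media background subtracted; Z' per plate.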

| Structure (SMILES) | Average % Inhibition 24h [%] |
| --- | --- |
| CCCNC(=O)c1sc(-n2nc(C)c(Cl)c2C)nc1C [SN00786172] | 7.3 |
| Cc1nc(N(C)C)cc(N2CCN(C(=O)Nc3cccc(C(F)(F)F)c3)CC2)n1 [SN00786482] | 10.6 |
| COc1cc(NC(=O)N2CCN(c3cc(N(C)C)nc(C)n3)CC2)cc(OC)c1 [SN00786504] | 4.9 |
| NC(=O)C1=C(Nc2ccccc2)c2ccccc2S1(=O)=O [SN00786825] | 12.8 |
| Cc1cccc(NC(=O)N2CCN(c3cc(C)nc(N4CCCC4)n3)CC2)c1 [SN00786874] | 3.5 |

Same assay, conditions: 24 h, first singlicate assay

| Structure (SMILES) | % Inhibition n=1 24h [%] |
| --- | --- |
| CCCNC(=O)c1sc(-n2nc(C)c(Cl)c2C)nc1C [SN00786172] | 14.5 |
| Cc1nc(N(C)C)cc(N2CCN(C(=O)Nc3cccc(C(F)(F)F)c3)CC2)n1 [SN00786482] | 15.1 |
| COc1cc(NC(=O)N2CCN(c3cc(N(C)C)nc(C)n3)CC2)cc(OC)c1 [SN00786504] | 9.8 |
| NC(=O)C1=C(Nc2ccccc2)c2ccccc2S1(=O)=O [SN00786825] | 25.7 |
| Cc1cccc(NC(=O)N2CCN(c3cc(C)nc(N4CCCC4)n3)CC2)c1 [SN00786874] | 7.1 |

Same assay, conditions: 24 h, re-assessment

| Structure (SMILES) | % Inhibition n=2 24h [%] |
| --- | --- |
| CCCNC(=O)c1sc(-n2nc(C)c(Cl)c2C)nc1C [SN00786172] | 0.0 |
| Cc1nc(N(C)C)cc(N2CCN(C(=O)Nc3cccc(C(F)(F)F)c3)CC2)n1 [SN00786482] | 6.1 |
| COc1cc(NC(=O)N2CCN(c3cc(N(C)C)nc(C)n3)CC2)cc(OC)c1 [SN00786504] | 0.0 |
| NC(=O)C1=C(Nc2ccccc2)c2ccccc2S1(=O)=O [SN00786825] | 0.0 |
| Cc1cccc(NC(=O)N2CCN(c3cc(C)nc(N4CCCC4)n3)CC2)c1 [SN00786874] | 0.0 |

Same assay, conditions: 48 h

| Structure (SMILES) | Average % Inhibition 48h [%] |
| --- | --- |
| CCCNC(=O)c1sc(-n2nc(C)c(Cl)c2C)nc1C [SN00786172] | 27.0 |
| Cc1nc(N(C)C)cc(N2CCN(C(=O)Nc3cccc(C(F)(F)F)c3)CC2)n1 [SN00786482] | 29.2 |
| COc1cc(NC(=O)N2CCN(c3cc(N(C)C)nc(C)n3)CC2)cc(OC)c1 [SN00786504] | 27.5 |
| NC(=O)C1=C(Nc2ccccc2)c2ccccc2S1(=O)=O [SN00786825] | 48.5 |
| Cc1cccc(NC(=O)N2CCN(c3cc(C)nc(N4CCCC4)n3)CC2)c1 [SN00786874] | 39.9 |

Same assay, conditions: 48 h, first singlicate assay

| Structure (SMILES) | % Inhibition n=1 48h [%] |
| --- | --- |
| CCn1c(Cn2cccn2)nc2cc(NC(C)=O)ccc21 [SN00786137] | 11.6 |
| CCCNC(=O)c1sc(-n2nc(C)c(Cl)c2C)nc1C [SN00786172] | 52.5 |
| Cc1nc(-n2nc(C)c(Cc3ccccc3Cl)c2C)sc1C(=O)NC(C)C [SN00786185] | 0.0 |
| Cc1ccc(CNc2nc(-c3ccco3)nn2C(=O)C(C)C)cc1 [SN00786221] | 11.1 |
| Cc1ccc(CNc2nc(-c3ccco3)nn2C(=O)c2cccc([N+](=O)[O-])c2)cc1 [SN00786222] | 6.6 |
| CN(C)C1(CNC(=O)COc2ccc(Br)cc2)CCCCC1 [SN00786247] | 5.1 |
| Cc1ccc(OCC(=O)NCC2(N3CCN(C)CC3)CCCCC2)cc1 [SN00786260] | 9.4 |
| CC1CCCCN1S(=O)(=O)c1ccc(NC(=O)c2cc(-c3cccs3)on2)cc1 (centres unmarked) [SN00786280] | 10.1 |
| Cc1ccc(NC(=O)c2cc(-c3ccc4c(c3)OCCO4)on2)cc1C [SN00786283] | 2.9 |
| O=C(NCc1ccccc1)c1nc[nH]c1C(=O)NCc1cccc(C(F)(F)F)c1 [SN00786288] | 20.4 |
| COCCNC(=O)c1nc[nH]c1C(=O)NC(C)C [SN00786292] | 8.3 |
| CCCCNc1ncccc1-c1nc(-c2ccc(C)cc2)no1 [SN00786331] | 25.3 |
| Cc1nc(N2CCCCC2)cc(N2CCN(C(=O)c3cccc(F)c3)CC2)n1 [SN00786431] | 7.0 |
| Cc1ccc(Nc2cc(N3CCN(S(=O)(=O)c4ccc(C)c(C)c4)CC3)nc(C)n2)cc1 [SN00786472] | 20.7 |
| Cc1nc(N(C)C)cc(N2CCN(C(=O)Nc3cccc(C(F)(F)F)c3)CC2)n1 [SN00786482] | 55.4 |
| COc1cc(NC(=O)N2CCN(c3cc(N(C)C)nc(C)n3)CC2)cc(OC)c1 [SN00786504] | 55.1 |
| CCOC(=O)Cn1c(=O)n(-c2ccccc2)c(=O)c2cc3c(nc21)CC(C)(C)OC3 [SN00786524] | 18.7 |
| CC1(C)Cc2nc3[nH]c(=O)n(Cc4ccco4)c(=O)c3cc2CO1 [SN00786536] | 7.3 |
| O=C(Nc1ccc(N2CCn3c(nc4cc(Cl)ccc43)C2)cc1)NC1CCCCC1 [SN00786562] | 10.0 |
| O=C(Cc1scnc1-c1cccs1)N1CCN(c2ccccn2)CC1 [SN00786601] | 0.0 |
| O=S1(=O)C[C@H](NCc2ccccn2)[C@@H](S(=O)(=O)c2ccccc2)C1 [SN00786609] | 0.0 |
| Cc1csc(-n2nc(C)c(CC(=O)N3CCN(c4ccccc4)CC3)c2O)n1 [SN00786646] | 34.3 |
| Cc1nn(-c2nc(-c3ccccc3)cs2)c(O)c1CC(=O)N1CCN(c2ccc(F)cc2)CC1 [SN00786652] | 0.0 |
| COc1ccc(NC(=O)c2cc(C(F)(F)F)n(C)n2)cc1 [SN00786766] | 0.0 |
| Cc1ccc(C2=CC(c3ccccc3)n3nnnc3N2CC(=O)N2CCN(c3ccccc3)CC2)cc1 (centres unmarked) [SN00786799] | 34.8 |
| NC(=O)C1=C(Nc2ccccc2)c2ccccc2S1(=O)=O [SN00786825] | 65.7 |

| Structure (SMILES) | % Inhibition n=1 48h [%] |
| --- | --- |
| Cc1ccc2oc(N3CCN(C(=O)C(C)c4ccccc4)CC3)nc2n1 (centres unmarked) [SN00786842] | 24.1 |
| Cc1cccc(NC(=O)N2CCN(c3cc(C)nc(N4CCCC4)n3)CC2)c1 [SN00786874] | 49.3 |
| COc1ccc(NC(=O)N2CCN(c3cc(C)nc(N4CCOCC4)n3)CC2)cc1 [SN00786878] | 44.4 |
| C=CCn1c(C)c(CC(=O)Nc2cc(F)ccc2C)c(=O)n2nc(-c3ccccc3)nc12 [SN00786890] | 40.6 |
| O=C(Nc1ccccc1)c1cc(-c2cccs2)n(C2CCS(=O)(=O)C2)n1 (centres unmarked) [SN00786904] | 1.7 |
| O=C(c1cccc(Br)c1)N1CCC(c2nc3ccccc3[nH]2)CC1 [SN00786922] | 0.0 |
| COc1ccccc1OC(C)C(=O)N1N=C2CCCCC2C1(O)C(F)(F)F (centres unmarked) [SN00786959] | 13.1 |
| CCn1nnc(NCc2ccc(-c3ccccc3)cc2)n1 [SN00786962] | 14.2 |
| Cc1ccc2nc(-c3ccc(C)c(NC(=O)c4cccnc4)c3)[nH]c2c1 [SN00787045] | 8.2 |
| COc1ccccc1CCC(=O)N1CCN(c2ncnc3[nH]cnc23)CC1 [SN00787062] | 0.0 |
| Cn1nc(C(=O)NCCCN2CCN(c3ccccc3)CC2)c2c1-c1ccccc1OC2 [SN00787244] | 0.0 |
| O=C(Nc1nnc(S(=O)(=O)N2CCc3ccccc32)s1)c1ccccc1 [SN00787260] | 37.8 |
| Cn1c(C(=O)NCc2ccc(F)cc2)cc2c(=O)n3ccccc3nc21 [SN00787284] | 0.0 |
| CC1(C(=O)NCc2ccc(F)cc2)Cn2nc(-c3ccco3)cc2C(=O)N1Cc1ccccc1 (centres unmarked) [SN00787370] | 13.6 |
| COc1ccc(N2C(=O)c3cc(-c4ccco4)nn3CC2(C)C(=O)NC(C)(C)C)cc1 (centres unmarked) [SN00787372] | 16.8 |
| O=C(NCc1cccc(F)c1)C1CCCN(c2nc3ccccc3n3cccc23)C1 (centres unmarked) [SN00787408] | 0.0 |
| CCn1cc2c(n1)-c1c(oc(C(=O)Nc3ccc(F)cc3)c1C)CC2 [SN00787412] | 6.9 |
| Cc1c(C(=O)NCCCN2CCOCC2)oc2c1-c1nn(Cc3ccc(Cl)cc3)cc1CC2 [SN00787421] | 1.0 |
| CC1(C(=O)NC2CCCCC2)Cn2c(cc3ccccc32)C(=O)N1Cc1ccco1 (centres unmarked) [SN00787436] | 0.0 |
| O=C(Nc1cc(Cl)ccc1O)c1cc(-c2ccc(F)cc2)no1 [SN00787460] | 3.6 |
| CC(C(=O)NC1CCCCCC1)n1c(=O)c2cccn2c2cccnc21 (centres unmarked) [SN00787599] | 8.7 |
| O=C([C@H]1C[C@H]2CCCN2[C@@]12C(=O)Nc1ccccc12)N1CCN(c2ccccc2)CC1 [SN00787657] | 16.0 |
| CC1CC(C)CN(CCCNC(=O)C2CC3CCCN3C23C(=O)Nc2ccccc23)C1 (centres unmarked) [SN00787674] | 38.8 |
| CC1(C(=O)NC2CCCC2)Cn2c(ccc2-c2ccco2)C(=O)N1c1cccc(F)c1 (centres unmarked) [SN00787693] | 11.7 |
| CC1(C(=O)NCc2ccccc2)Cn2c(ccc2-c2ccco2)C(=O)N1CCc1ccco1 (centres unmarked) [SN00787709] | 0.0 |
| COc1ccc(-c2noc(CC(=O)N3CCN(c4ccccn4)CC3)n2)cc1 [SN00787724] | 23.4 |

Same assay, conditions: 48 h, re-assessment

| Structure (SMILES) | % Inhibition n=2 48h [%] |
| --- | --- |
| CCCNC(=O)c1sc(-n2nc(C)c(Cl)c2C)nc1C [SN00786172] | 1.5 |
| Cc1nc(N(C)C)cc(N2CCN(C(=O)Nc3cccc(C(F)(F)F)c3)CC2)n1 [SN00786482] | 2.9 |
| COc1cc(NC(=O)N2CCN(c3cc(N(C)C)nc(C)n3)CC2)cc(OC)c1 [SN00786504] | 0.0 |
| NC(=O)C1=C(Nc2ccccc2)c2ccccc2S1(=O)=O [SN00786825] | 31.3 |
| Cc1cccc(NC(=O)N2CCN(c3cc(C)nc(N4CCCC4)n3)CC2)c1 [SN00786874] | 30.5 |
